Where two headings read alike, the source gives them in different places.
What was measured:
[1] = test system: cellules leucémiques L 1210; test: Cytotoxicity: growth inhibition of L 1210 cells in culture; format: cell-based; settings: concentration giving 50 p. 100 inhibition of cell multiplication, 48 hours of culture, DMSO 1 p. 100 final, read-out: ID50 (the source's name)
Description: Les substances à étudier sont dissoutes dans du DMSO (1 p. 100 final) dont on a préalablement vérifié l'innocuité. Des quantités croissantes du produit à tester sont ajoutées au temps ? des numérations sont faites après 24 heures et 48 heures de contact. Des sérias témoins sont constituées avec ces quantités de DMSO équivalentes à celles des séries traitées. […] 5 Le pourcentage d'inhibition de la croissance cellulaire est déterminé par le rapport […] de croissance du témoin sur […] de croissance des essais pour différentes concentrations de produit à tester après 24 heures et 48 heures de culture Une relation dose effet est déterminée selon […] et WILCOXON (C. DUPONT, […].

[2] = test system: souris femelles de type DSA/2; settings: mouse, in vivo, ip, 43200 min
Description: Cette étude, effectuée sur des souris femelles de type DSA/2 d'un poids corporel moyen de 20 g a permis de déterminer la DL0, qui représente la dose unique maximum administrable par une injection intrapéritonéale sans qu'aucune mort intervienne dans les 30 jours qui suivent l'administration du produit.

[3] = test system: cellules tumorales L 1210; test: Antitumour effect: increase in life span of mice inoculated with L 1210 cells; format: in vivo, souris; settings: 10^5 L 1210 cells i.p.; compound i.p. at dose DL0/2 (half the LD0 dose), 20 hours after inoculation; versus control animals; significant if above 25 p. 100
Description: Les cellules tumorales L 1210 sont inoculées par la voie intrapéritonéale à ces souris femelles OBA/2 d'un poids corporel moyen de 20g en une injection unique de 10^5 cellules; chez les animaux traités, le composé étudié est injecté à la dose de OL0/2 également par la voie intrapéritonéale 20 heures après la première injection des cellules L 1210.
L'effet antitumoral est apprécié par la détermination de l'augmentation de la durée de survie (ILS : increase in life Span) des animaux traités par rapport aux animaux témoins qui n'ont reçu que les cellules tumorales.
L'augmentation de la durée de survie est considérée comme significative lorsqu'elle est supérieure à 25 p. 100.
Les résultats obtenus sont consignés dans le tableau suivant qui indique pour les dérivés testés, le pourcentage d'augmentation de la durée de survie par rapport au témoin.

Compound | IC50 ([1]; Mus musculus, L1210) [nM] | DL0 [2] [mg/kg] | POURCENTAGE D'AUGMENTATION DE LA DUREE DE SURVIE (ILS) [3] | IC50 [1] [nM]
CC(=O)NC(CSc1c(O)ccc2[nH]c3c(C)c4cc[n+](C)cc4c(C)c3c12)C(=O)O (stereo not shown) [dérivé n° 8, Hexafluorophosphate de méthyl-2 hydroxy-9 N-acétyl cystéin-10 ellipticinium] | 1120 |  |  | 
Cc1c2cc[n+](C)cc2c(C)c2c1[nH]c1ccc(O)c(SCC(NC(=O)CCC(N)C(=O)O)C(=O)NCC(=O)O)c12 (stereo not shown) [dérivé n° 9, hexafluorophosphata de méthyl-2 hydroxy-9 glutathion-10 ellipticinium] | 1610 |  |  | 
Cc1c2cc[n+](C)cc2c(C)c2c1[nH]c1ccc(O)c(N=C(CC(C)C)C(=O)O)c12 [dérivé n° 1, acétate es méthyl-2 hydroxy-9 leucine-10, elliopticinium] | 280 | 10 | 35 p. 100 | 
acétate de méthyl -2 oxo -9 (guanylyl -5' -P)-10 ellipticinium [dérivé n° 13] |  |  |  | > 1000
acétate de méthyl-2 oxo -9 (adényl -5'-P)-10 ellioticinium [dérivé n° 12] |  |  |  | > 800
Cc1c2cc[n+](C)cc2c(C)c2c1[nH]c1ccc(O)c(N=CC(=O)O)c12 [dérivé n° 3] | 540 | 20 |  | 
acétate de méthyl-2 oxo-9 guanosyl-10 ellipticinium [dérivé n° 11] |  |  |  | 760
Cc1c2cc[n+](C)cc2c(C)c2c1[nH]c1ccc(O)c(N=C(Cc3c[nH]cn3)C(=O)O)c12 [dérivé n° 4] | 2460 |  |  | 
CC(=Nc1c(O)ccc2[nH]c3c(C)c4cc[n+](C)cc4c(C)c3c12)C(=O)O [dérivé n° 5, scétate ce méthyl-2 hydroxy-9 elanine-10 ellipricinium] | 200 | 20 |  | 
acétate de méthyl-2 oxo-9 adényl-10 ellipticinium [dérivé n° 10] |  |  |  | 500
Cc1c2cc[n+](C)cc2c(C)c2c1[nH]c1ccc(O)c(N=C(CCC(=O)O)C(=O)O)c12 [dérivé n° 6, acétate de méthyl-2 hydroxy-9 glutamyle-10 ellipticinium] | 23500 |  |  | 
Hexafluorophosphate de méthyl-2 hydroxy-8 méthylcystéine-10 ellipticinium [dérivé n° 7] |  |  |  | 790
Cc1c2cc[n+](C)cc2c(C)c2c1[nH]c1ccc(O)c(N=C(C(=O)O)C(C)C)c12 [dérivé n° 2, acétate de méthyl-2 hydroxy-9 valine 10 ellipticinium] | 310 | 15 | 31,3 p. 100 | 
